Records with an inconclusive call do not appear. Activity calls are given as the source filed them.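 How the source made its calls: active means fitted curve reaches -35% activity change at up to twice the top valid dose, with every replicate test run active; inconclusive means replicate test runs disagree on the call; inactive means all runs inactive, no -35% crossing or signal rises.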
Test system: not listed separately
Assay: inhibition of EBV LMP1-induced NF-kB luciferase – cell-based, HEK293, dry powder, dose response (AID 624373)
Details: HEK293 LMP1-TES2 NF-kB luciferase reporter, 16 h; at 15 µM (top of the series)

Compound	activity change, negative = inhibition
C=C1C[C@]23C[C@@]1(O)CC[C@H]2[C@@]12C=C[C@H](O)[C@@](C)(C(=O)O1)[C@H]2[C@@H]3C(=O)O	2.14% (inactive)

Same assay, conditions: HEK293 LMP1-TES2 NF-kB luciferase reporter, 16 h; at 26 µM (top of the series)

Compound	activity change, negative = inhibition
COc1ccc(-c2csc3ncnc(NCCN4CCOCC4)c23)cc1	30.3% (inactive)
C[C@@H]1CN([C@@H](C)CO)C(=O)c2cc(NC(=O)Nc3ccc(C(F)(F)F)cc3)ccc2O[C@@H](C)CCCCO[C@H]1CN(C)Cc1ccc(C(F)(F)F)cc1	52.3% (inactive)
CNC[C@@H]1Oc2ccc(NS(=O)(=O)c3cn(C)cn3)cc2CC(=O)N([C@H](C)CO)C[C@@H]1C	37.6% (inactive)
Cc1ccc(S(=O)(=O)NC(CC(C)C)C(=O)NCC(c2ccco2)N2CCCCC2)cc1 (centres undefined)	-8.46% (inactive)
COc1ccc(-c2cc3nc4n(c(=O)c3s2)CCC4)cc1	23.4% (inactive)
CCc1ccc(/C=C2\SC(=S)N(CCCC(=O)Nc3ccccn3)C2=O)cc1	12.1% (inactive)
CCc1sc(C(=O)Nc2ncccc2O)cc1C	-12.6% (inactive)
c1ccc(-c2cn3c4c(sc3n2)CCCC4)cc1	7.22% (inactive)
C[C@@H]1CCCCO[C@H](CN(C)CC2CCCCC2)[C@H](C)CN([C@@H](C)CO)C(=O)c2cc(NC(=O)NC3CCCCC3)ccc2O1	56.5% (inactive)
C[C@@H]1CCCCO[C@H](CN(C)C(=O)c2ccccc2)[C@H](C)CN([C@@H](C)CO)C(=O)c2cc(NC(=O)Nc3ccc(F)cc3)ccc2O1	4.26% (inactive)
O=C(Nc1cc(C(F)(F)F)cc(C(F)(F)F)c1)Nc1cnn(-c2ccc([N+](=O)[O-])cc2)c1C(F)(F)F	10.5% (inactive)
Oc1cccc(C(Nc2nccs2)c2ccc3cccnc3c2O)c1 (centres undefined)	33.9% (inactive)
Cc1c(NC(=O)c2cccc(NC(=O)COc3ccccc3C#N)c2)c(=O)n(-c2ccccc2)n1C	23.3% (inactive)
C[C@@H]1CCCCO[C@@H](CN(C)Cc2ccccc2)[C@H](C)CN([C@H](C)CO)C(=O)c2cc(NC(=O)Nc3ccc4c(c3)OCO4)ccc2O1	10.6% (inactive)
C[C@H](CO)N1C[C@H](C)[C@@H](CN(C)CC2CCCCC2)OCCCC[C@H](C)Oc2ccc(NC(=O)Nc3cccc4ccccc34)cc2C1=O	27.7% (inactive)
Cc1cc(NC(=O)c2ccc3c(c2)OCCO3)no1	1.38% (inactive)

Test system: HEK293 LMP1-TES2 NF-kB luciferase reporter, 16 h
Assay: as above
Details: not given

Compound	AC35
COc1ccccc1[C@]1(C)ON(c2ccccc2C(F)(F)F)C1=O	8.16 µM
CCCSc1nnc2c3ccccc3n(Cc3ccccc3)c2n1	3.4 µM
C/C(=N\NC(=S)Nc1ccccc1)c1ccccn1	0.313 µM
C/C(=N\NC(=S)N1CC2CCC(CC2)C1)c1cccc(C)n1	0.637 µM
Nc1ccn([C@@H]2O[C@H](CO)[C@@H](O)C2O)c(=O)n1 (some centres undefined)	8.54 µM
C/C(=N\NC(=S)N1CCCCC1)c1ccccn1	0.212 µM
O=C1/C(=C/c2ccncc2)SC(=S)N1Cc1ccccc1	18.2 µM
C[C@H](CO)N1C[C@H](C)[C@H](CN(C)C(=O)Nc2ccc(C(F)(F)F)cc2)OCCCC[C@H](C)Oc2ccc(NC(=O)Nc3ccc(F)cc3)cc2C1=O	5.4 µM
C[C@@H]1CN([C@@H](C)CO)C(=O)c2cc(NC(=O)Nc3ccc4c(c3)OCO4)ccc2O[C@H]1CN(C)CC1CCCCC1	0.895 µM
CSC(=S)N/N=C(\C)c1cccc(C)n1	3.01 µM
C/C(=N\NC(=S)N1CC2CCC(CC2)C1)c1ccccn1	1.18 µM
C/C(=N\NC(=S)Nc1cccc(Cl)c1)c1ccccn1	0.314 µM
Fc1ccc2c(c1)c1nnc(SCCN3CCOCC3)nc1n2Cc1ccccc1	3.94 µM
C/C(=N\NC(=S)N1CC2CCC(CC2)C1)c1ccncn1	2.5 µM
C/C(=N\NC(=S)N1CCCCCC1)c1ccccn1	0.216 µM
C[C@H](CO)N1C[C@H](C)[C@@H](CN(C)CC2CC2)OCCCC[C@H](C)Oc2ccc(NC(=O)Nc3cccc4ccccc34)cc2C1=O	0.351 µM
c1ccc(Cn2c3ccccc3c3nnc(SCCN4CCCCC4)nc32)cc1	18.7 µM
O=C(CSc1nnc2c3ccccc3n(Cc3ccccc3)c2n1)NCc1ccco1	2.1 µM
Cc1ccnc(NC(=O)c2ccc(C(=O)c3ccccc3)cc2)c1	11 µM
Cc1ccc(S(=O)(=O)Nc2ccc3c(c2)C(=O)N([C@@H](C)CO)C[C@H](C)[C@@H](CN(C)C(=O)CCC(F)(F)F)OCCCC[C@H](C)O3)cc1	0.288 µM
CC1CN(C(=O)CSc2nnc3c4ccccc4n(Cc4cccc(Cl)c4)c3n2)CCN1C(=O)c1ccccc1F (centres undefined)	4.36 µM

Compound	AC35
COc1ccc2[nH]c(C(=O)N/N=C/c3ccc(O)cc3O)cc2c1	3.63 µM
C/C=C/C/C=C/CCC(=O)[C@H]1O[C@H]1C(N)=O	12 µM
CC(C)=CCN(C(=O)C#Cc1ccccc1)[C@H](CO)c1ccccc1	1.88 µM
C[C@@H]1CN([C@@H](C)CO)C(=O)c2cc(NC(=O)Nc3ccc(C(F)(F)F)cc3)ccc2O[C@@H](C)CCCCO[C@@H]1CN(C)CC1CCCCC1	1.86 µM
CC12CCC3C(CC=C4CC(O)CCC43CO)C1CCC2OC(=O)c1ccccc1 (centres undefined)	3.06 µM
C/C(=N\NC(=S)N1CCCC1)c1ccccn1	0.262 µM
O=c1[nH]c(=O)n([C@H]2C[C@H](O)[C@@H](CO)O2)cc1C(F)(F)F	3.09 µM
S=C(NCc1ccccn1)N/N=C/c1ccccn1	1.01 µM
C[C@H](CO)N1C[C@H](C)[C@@H](CN(C)Cc2ccc(-c3ccccc3)cc2)Oc2ccc(NC(=O)Nc3cccc4ccccc34)cc2CC1=O	2.36 µM
C/C(=N\NC(=S)N1CCC1)c1ccccn1	0.679 µM
C/C(=N\NC(=S)Nc1ccc(C)cc1)c1ccccn1	0.142 µM
CCC(Sc1nnc2c3ccccc3n(Cc3ccc(Br)cc3)c2n1)C(=O)NCCCN1CCOCC1 (centres undefined)	3.2 µM
C/C(=N\NC(=S)N1CCCCC1)c1cccc(C)n1	0.259 µM
C[C@H]1CCCCO[C@@H](CN(C)CC2CCCCC2)[C@@H](C)CN([C@@H](C)CO)C(=O)c2cc(NC(=O)C3CCCCC3)ccc2O1	9.98 µM
COc1ccc(NC(=O)c2ccc(OC(C)C(=O)O)cc2)cc1Cl (centres undefined)	11.8 µM
C[C@@H]1CCCCO[C@H](CN(C)C(=O)NC2CCCCC2)[C@H](C)CN([C@@H](C)CO)C(=O)c2cc(NC(=O)C3CCCCC3)ccc2O1	6.42 µM
C=C1C[C@]23C[C@@]1(O)CC[C@@H]2c1cccc(C)c1[C@@H]3C(=O)O	4.34 µM
Cc1ccc(NC(=O)C2CCN(S(=O)(=O)c3ccc4c(c3)NC(=O)C(C)S4)CC2)cc1Cl (centres undefined)	1.65 µM
CCN1CCN(C(c2cccnc2)c2cc(Cl)c3cccnc3c2O)CC1 (centres undefined)	3.32 µM
COCCCNC(=O)C(C)Sc1nnc2c3cc(C)ccc3n(Cc3ccccc3F)c2n1 (centres undefined)	5.01 µM
C/C(=N\NC(=S)Nc1ccccc1Cl)c1ccccn1	0.457 µM
